The values that follow come from PubChem BioAssay (NCI).

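1) Cells in 96-well plates. 2) Compound, 48 h, 5 concentrations. 3) Linear interpolation between surrounding doses. 4) Unreached endpoint = highest concentration. TGI: concentration producing complete growth inhibition.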

Holding throughout (assay): NCI-60 cell line screen, 48 h
The test system of experiment [1] is 786-0 renal.
Experiment [2] has as its system CAKI-1 renal.
Experiment [3] deals with A549 NSCLC.
In experiment [4] the test system is UACC-62 melanoma.
In experiment [5] the test system is ACHN renal.
Experiment [6] deals with SF-268 CNS.
Experiment [7] has as its system NCI-H23 lung.
The subject of experiment [8] is HCT-116 colon.
The test system of experiment [9] is LXFL 529 NSCLC.
For experiment [10], the system named is K-562 leukemia.
Experiment [11] has as its system U251 CNS.
Experiment [12] relates to OVCAR-5 ovarian.
Experiment [13] relates to HOP-62 NSCLC.
For experiment [14], the system named is KM12 colon.
In experiment [15] the test system is SN12C renal.
The test system of experiment [16] is COLO 205 colon.
Experiment [17] has as its system HS 578T breast.
For experiment [18], the system named is MDA-N.
Experiment [19] relates to DU-145 prostate.
Experiment [20] concerns BT-549 breast.

In the case of `O=C(O)COc1ccc(C(=O)/C(SS/C(C(=O)c2ccc(OCC(=O)O)c(Cl)c2Cl)=C2\C=C(c3ccc(Cl)cc3)SS2)=C2/C=C(c3ccc(Cl)cc3)SS2)c(Cl)c1Cl`, the TGI in [1] is 26.3 µM; in [2] it was greater than 100 µM; in experiment [3] it was 41.7 µM; in experiment [4] it was 25.7 µM; in [5] it was 25.4 µM; in experiment [6], 27.6 µM. Further, the TGI in experiment [7] is 40.8 µM; in experiment [8], 22.8 µM; in experiment [9], 14.4 µM; in [10], 10.7 µM; in [11], 15.4 µM; in [12], greater than 100 µM. Further, the TGI in experiment [13] was greater than 100 µM; in [14], 54.6 µM; in experiment [15] it was 1.79 µM; in experiment [16], 1.27 µM.

Take `O=C1C=CC(=O)c2c1ccc1c3ccccc3n(-c3ccccc3)c21`: the TGI stood at 33 µM in experiment [1]; 19.6 µM in [2]; 44.2 µM in experiment [3]; 26.2 µM in experiment [4]; 11.1 µM in experiment [5]; 40.9 µM in experiment [6]. In addition, the TGI in experiment [7] was 34.1 µM; in [17] it was 60.5 µM; in experiment [8], 7.03 µM; in [9], 10.9 µM; in experiment [10] it was 5.08 µM; in experiment [11] it was 43.7 µM. The TGI in experiment [18] is 18.3 µM; in experiment [19] it was 37.2 µM; in experiment [12] it was 31.7 µM; in experiment [13], 37.7 µM; in [14], 37.7 µM; in experiment [15], 26.6 µM. The TGI in experiment [20] worked out at 27 µM; in experiment [16], 22.8 µM.

`N#Cc1cc([N+](=O)[O-])ccc1NC(=O)/C(=N\NC(=O)c1ccncc1)C(c1cnc2ccc([N+](=O)[O-])cc2n1)[N+](=O)[O-]` (stereo unspecified): the TGI came to 6.16 µM in experiment [1]; 17.9 µM in experiment [2]; 15.8 µM in experiment [3]; 2.96 µM in experiment [4]; 9.14 µM in [5]; 11.6 µM in [6]. Also, the TGI came to 2.65 µM in experiment [7]; 6.23 µM in [17]; 7.33 µM in experiment [8]; 3.81 µM in experiment [9]; 6.4 µM in experiment [10]; 6.63 µM in [11]. Moreover, the TGI turned out to be 1.26 µM in [18]; 11.8 µM in experiment [19]; 22.4 µM in [12]; 6.8 µM in experiment [13]; 7.53 µM in experiment [14]; 3.71 µM in [15]. Besides, the values for the TGI in experiment [20] and in [16] were 3.55 µM and 17.9 µM, respectively.
